PMC6222606, “Biodegradation of 7-Hydroxycoumarin in Pseudomonas mandelii 7HK4 via ipso-Hydroxylation of 3-(2,4-Dihydroxyphenyl)-propionic Acid” (Molecules : A Journal of Synthetic Chemistry and Natural …, 2018)

Biological target: T1, HcdB (Pseudomonas mandelii, UniProt A0A385IUB9)
T1 sequence (A0A385IUB9 1-186): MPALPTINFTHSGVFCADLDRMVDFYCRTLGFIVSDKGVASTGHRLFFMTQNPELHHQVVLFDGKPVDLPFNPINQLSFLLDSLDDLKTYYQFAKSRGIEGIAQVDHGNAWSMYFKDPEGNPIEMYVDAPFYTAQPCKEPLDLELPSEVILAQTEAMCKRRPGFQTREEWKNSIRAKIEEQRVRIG
Experiment: whole-cell bioconversion, UV-VIS of yellow meta-cleavage product; cells without hcdB inactive
Type: cell-based
Details: […] potassium phosphate pH […] °C, […] substrate

Oc1ccccc1O [pyrocatechol]
whole-cell bioconversion, UV-VIS of yellow meta-cleavage product; cells without: HcdB is capable oxidizing pyrocatechol, 3-methylcatechol, 3-methoxycatechol, 4-methylcatechol
